Reference: patent publication US8716493B2, “Multicyclic compounds and the use thereof” (Cephalon, Inc., priority 2000, dated 2014)
Structures can show the parent of a compound that is named as a salt. Where two headings read alike, the source gives them in different places.

Tests used:
[1] = tested on: rat model of focal cerebral ischemia; conditions: i.p. 10 mg/kg two hours prior to and two hours after initiation of ischemia; cited from earlier work
[2] = molecular target: T1, human VEGFR2 cytoplasmic domain (Homo sapiens, UniProt P35968); assay: Measurement of VEGFR2 kinase enzymatic activity (time-resolved fluorescence, PLC-γ/GST substrate); type: biochemical; conditions: Table 5; for VEGFR2 % @ 300 nM: percent inhibition at 300 nM
T1 construct: recombinant human baculovirus-expressed human VEGFR2 cytoplasmic domain; host or cells: baculovirus-expressed
Procedure: A 96-well FluoroNUNC MaxiSorp plate was coated with 100 μL/well of recombinant human PLC-γ/GST substrate solution at a concentration of 40 μg/mL in Tris-buffered saline (TBS). The VEGFR2 activity was assayed in a 100 μL assay mixture containing 50 mM HEPES (pH 7.4), 30 μM ATP, 10 mM MnCl2, 0.1% BSA, 2% DMSO, and 150 ng/mL recombinant human baculovirus-expressed human VEGFR2 cytoplasmic domain (prephosphorylated for 60 min at 4° C. in the presence of 30 μM ATP and 10 mM MnCl2 prior to use). The kinase reaction was allowed to proceed at 37° C. for 15 min. The europium-labeled anti-phosphotyrosine detection antibody was added at 1:5000 dilution in block buffer (3% BSA in TBST). After 1 hour of incubation at 37° C., 100 μL of enhancement solution (Wallac #1244-105) was added and the plate was gently agitated. After 5 min, the time-resolved fluorescence of the resulting solution was measured using the BMG PolarStar (Model #403) using excitation and emission wavelengths of 340 nm and 615 nm, respectively, a collection delay of 400 μsec and an integration time of 400 μsec.
(§1) Single-point inhibition data were calculated by comparing PARP, VEGFR2, or MLK3 activity in the presence of inhibitor to activity in the presence of DMSO only. Inhibition curves for compounds were generated by plotting percent inhibition versus log10 of the concentration of compound. IC50 values were calculated by nonlinear regression using the sigmoidal dose-response (variable slope) equation in GraphPad Prism as follows: y=bottom+(top−bottom)/(1+10^(log IC50^−x)*Hillslope) where y is the % activity at a given concentration of compound, x is the logarithm of the concentration of compound, bottom is the % inhibition at the lowest compound concentration tested, and top is the % inhibition at the highest compound concentration examined. The values for bottom and top were fixed at 0 and 100, respectively. IC50 values were reported as the average of at least three separate determinations.
The following Examples 5 to 10 present PARP, VEGFR2, and MLK3 inhibiting data for compounds of the present invention. […] For some compounds, inhibiting data is presented as percent inhibition at a specified concentration. Compounds are tabulated together with compound number, substituents, and enzyme inhibition data.

[3] = molecular target: T2, MLK3 (Homo sapiens, UniProt Q16584); assay: Measurement of MLK3 enzymatic activity (32P phosphorylation of myelin basic protein); type: biochemical; conditions: percent inhibition at 1 μM; Table 5
T2 construct: 2 μg/mL of baculoviral human GST-MLK1 kinase domain; GST (N); host or cells: baculovirus expression
Procedure: The activity assay for MLK3 was performed in Millipore Multiscreen plates. Each 50 μL assay mixture contained 50 mM HEPES (pH 7.0), 1 mM EGTA, 10 mM MgCl2, 1 mM DTT, 25 mM β-glycerophosphate, 100 μM ATP, 1 μCi [γ-^32P]ATP, 0.1% BSA, 500 μg/mL myelin basic protein, 2% DMSO, various concentrations of test compounds, and 2 μg/mL of baculoviral human GST-MLK1 kinase domain. Samples were incubated for 15 min at 37° C. The reaction was stopped by adding ice-cold 50% TCA and the proteins were allowed to precipitate for 30 min at 4° C.
as §1
For some compounds, inhibiting data is presented as percent inhibition at a specified concentration. Compounds are tabulated together with compound number, substituents, and enzyme inhibition data.

[4] = tested on: suture occlusion model of focal ischemia; conditions: rat; 10 mg/kg; cited from earlier work
[5] = tested on: mouse MCA occlusion (suture thread method); conditions: mice; intracerebroventricular administration; two hour MCA occlusion; cited from earlier work
[6] = molecular target: recombinant human PARP (Homo sapiens, UniProt P09874); assay: Measurement of PARP enzymatic activity (transfer of radiolabeled ADP-ribose from NAD+ to protein acceptor); type: biochemical
Method in brief: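 Radiometric assay measuring transfer of [32P]ADP-ribose from NAD+ (100 μM, 2 uCi/mL label) to histone or PARP automodification, 12 min at room temperature; acid-insoluble radioactivity counted by scintillation.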

Chain of recombinant human PARP (P09874 whole entry): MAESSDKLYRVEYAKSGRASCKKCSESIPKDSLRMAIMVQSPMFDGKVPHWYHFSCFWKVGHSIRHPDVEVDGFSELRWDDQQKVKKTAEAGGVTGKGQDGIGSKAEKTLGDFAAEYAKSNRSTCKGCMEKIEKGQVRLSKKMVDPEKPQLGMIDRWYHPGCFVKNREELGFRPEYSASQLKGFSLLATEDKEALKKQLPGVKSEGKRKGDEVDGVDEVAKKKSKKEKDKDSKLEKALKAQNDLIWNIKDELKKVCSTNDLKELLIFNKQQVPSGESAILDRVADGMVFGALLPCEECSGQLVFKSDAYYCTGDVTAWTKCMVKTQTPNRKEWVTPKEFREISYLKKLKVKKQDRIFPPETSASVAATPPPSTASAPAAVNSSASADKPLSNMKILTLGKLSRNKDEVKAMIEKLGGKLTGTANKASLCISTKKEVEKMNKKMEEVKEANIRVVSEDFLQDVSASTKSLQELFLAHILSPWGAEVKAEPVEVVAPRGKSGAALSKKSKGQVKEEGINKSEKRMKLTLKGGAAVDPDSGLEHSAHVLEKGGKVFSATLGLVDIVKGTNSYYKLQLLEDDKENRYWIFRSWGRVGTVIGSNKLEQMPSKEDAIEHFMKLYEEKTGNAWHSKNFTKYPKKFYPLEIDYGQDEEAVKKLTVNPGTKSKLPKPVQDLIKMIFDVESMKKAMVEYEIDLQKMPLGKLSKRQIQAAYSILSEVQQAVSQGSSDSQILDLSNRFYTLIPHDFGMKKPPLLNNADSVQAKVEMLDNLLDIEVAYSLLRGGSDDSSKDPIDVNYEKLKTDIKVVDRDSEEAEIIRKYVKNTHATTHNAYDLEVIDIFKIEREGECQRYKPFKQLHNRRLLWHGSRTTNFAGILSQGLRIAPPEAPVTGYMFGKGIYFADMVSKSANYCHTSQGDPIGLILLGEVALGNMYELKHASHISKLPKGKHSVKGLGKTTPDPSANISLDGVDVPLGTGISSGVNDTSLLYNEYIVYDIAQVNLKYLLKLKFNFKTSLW
T1 sequence (P35968 786-1356 limits assumed): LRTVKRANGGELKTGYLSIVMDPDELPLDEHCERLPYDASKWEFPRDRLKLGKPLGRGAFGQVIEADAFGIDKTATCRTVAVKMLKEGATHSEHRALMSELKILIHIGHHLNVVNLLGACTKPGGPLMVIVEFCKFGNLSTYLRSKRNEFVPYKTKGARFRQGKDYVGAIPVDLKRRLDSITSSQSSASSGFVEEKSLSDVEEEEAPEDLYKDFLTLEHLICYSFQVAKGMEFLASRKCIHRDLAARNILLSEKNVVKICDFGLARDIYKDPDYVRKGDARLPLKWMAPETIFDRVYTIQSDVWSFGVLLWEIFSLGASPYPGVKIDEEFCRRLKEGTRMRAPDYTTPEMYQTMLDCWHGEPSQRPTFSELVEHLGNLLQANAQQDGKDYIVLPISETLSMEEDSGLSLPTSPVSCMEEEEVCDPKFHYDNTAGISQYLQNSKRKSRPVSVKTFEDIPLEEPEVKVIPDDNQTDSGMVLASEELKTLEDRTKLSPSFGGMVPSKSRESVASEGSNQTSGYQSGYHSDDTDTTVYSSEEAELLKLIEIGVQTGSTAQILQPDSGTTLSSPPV
T2 sequence (Q16584 117-379 limits assumed): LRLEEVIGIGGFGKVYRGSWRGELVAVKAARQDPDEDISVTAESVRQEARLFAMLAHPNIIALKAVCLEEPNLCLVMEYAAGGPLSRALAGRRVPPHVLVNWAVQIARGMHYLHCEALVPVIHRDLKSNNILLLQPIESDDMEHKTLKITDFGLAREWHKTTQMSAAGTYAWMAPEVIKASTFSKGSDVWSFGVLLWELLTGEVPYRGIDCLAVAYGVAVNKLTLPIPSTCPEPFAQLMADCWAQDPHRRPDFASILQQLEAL

O=C1NCCc2c(OCCCCN3CCCCC3)cccc21 [DPQ, 3,4-dihydro-5-[4-(1-piperidinyl)butoxy]-1(2H)-isoquinolinone]
reduction in infarct volume [1]: 54%

O=C1NCc2c3c(c4[nH]c5ccccc5c4c21)CCC3 [Compound 11a, 5,7,8,9,10,11-Hexahydrocyclopent[a]pyrrolo[3,4-c]carbazole-5(6H)-one]
IC50 [2]: 477 nM

9-Ethyl-8-propyl-5,7-dihydropyrrolo[3,4-c]carbazole-5(6H), 7(10H)-dione [Compound 11c]
MLK3 % @ 1 μM [3]: 46% | VEGFR2 % @100 nM ([2]; percent inhibition at 100 nM): 0% @100 nM

O=C1NC(=O)c2c1c1ccccc1c1[nH]c3ccccc3c21 [Compound 11e]
MLK3 % @ 1 μM [3]: 35% | IC50 [2]: 166 nM

O=C1NC(=O)c2c1c1cnccc1c1[nH]c3ccccc3c21 [Compound 12a]
MLK3 % @ 1 μM [3]: 74% | IC50 [2]: 235 nM

O=C1NC(=O)c2c1c1occc1c1[nH]c3ccccc3c21 [Compound 11g, 5,7-Dihydrofuran[a-3,2]pyrrolo[3,4-c]carbazole-5(6H), 7(11H)-dione]
MLK3 % @ 1 μM [3]: 16% | VEGFR2 % @ 300 nM [2]: 8%

O=C1NC(=O)c2c1c1c(c3[nH]c4ccccc4c23)CCO1 [Compound 11f, 5,7,10,11-Tetrahydrofuran[a-3,2]pyrrolo[3,4-c]carbazole-5(6H), 7(9H)-dione]
MLK3 % @ 1 μM [3]: 62% | VEGFR2 % @ 300 nM [2]: 3%

NC(=O)c1cccc(N)c1 [Compound 3-AB, 3-aminobenzamide]
infarct volume [4]: significantly reduced | decrease in infarct volume [5]: 47%

CCN(CC)CCCN1C(=O)c2c3c(c4[nH]c5ccccc5c4c2C1=O)CCC3 [Compound 1h]
IC50 ([6]; Table 1, read-out: PARP IC50): 819 nM

O=C1NC(=O)c2c1c1c(c3[nH]c4ccc(OC(=O)N5CCOCCOCCOCC5)cc4c23)CCC1 [Compound 15o]
IC50 ([6]; PARP IC50, Table 18): 76 nM

O=C(NCc1ccncc1)c1ccc2[nH]c3c4c(c5c(c3c2c1)C(=O)NC5=O)CCC4 [Compound 2ci]
IC50 ([6]; Table 2, read-out: PARP IC50): 13 nM

N#Cc1ccc2c(c1)c1c3c(c4c(c1n2C(=O)[C@@H](N)CCCCN)CCC4)C(=O)NC3 [Compound 6j, 3-Cyano-11-L-lysyl-5,7,8,9,10,11-hexahydrocyclopent[a]pyrrolo[3,4-c]carbazole-7(6H)-one dihydrochloride]
IC50 ([6]; Table 3, read-out: PARP IC50): 460 nM

O=C1NC(=O)c2c1c1c(c3[nH]c4ccc(C(=O)N5CCOCC5)cc4c23)CCC1 [Compound 2cp]
IC50 ([6]; Table 2, read-out: PARP IC50): 12 nM

CN1CCN(CC(=O)c2ccc3[nH]c4c5c(c6c(c4c3c2)C(=O)NC6=O)CCC5)CC1 [Compound 2g]
IC50 ([6]; Table 2, read-out: PARP IC50): 16 nM

O=C(NCCn1cncn1)Oc1ccc2[nH]c3c4c(c5c(c3c2c1)C(=O)NC5=O)CCC4 [Compound 15n]
IC50 ([6]; PARP IC50, Table 18): 38 nM

CN(C)CC(=O)OCc1ccc2[nH]c3c4c(c5c(c3c2c1)C(=O)NC5=O)CCC4 [Compound 2bg]
IC50 ([6]; Table 2, read-out: PARP IC50): 31 nM

O=C(NCCCn1ccnc1)Oc1ccc2[nH]c3c4c(c5c(c3c2c1)C(=O)NC5=O)CCC4 [Compound 15d]
IC50 ([6]; PARP IC50 (nM), Table 8): 32 nM

O=C1NC(=O)c2c1c1c(c3[nH]c4ccc(CN5CCCCC5)cc4c23)CCC1 [Compound 2bx]
IC50 ([6]; Table 2, read-out: PARP IC50): 35 nM

O=C1NC(=O)c2c1c1c(c3[nH]c4ccc(OC(=O)N5CCOCC5)cc4c23)CCC1 [Compound 15a]
IC50 ([6]; PARP IC50 (nM), Table 8): 35 nM

CCCC(=O)NCc1nc(-c2ccc3[nH]c4c5c(c6c(c4c3c2)C(=O)NC6=O)CCC5)cs1 [Compound 3u]
IC50 ([6]; Table 2, read-out: PARP IC50): 42 nM

NCCCC[C@H](N)C(=O)N1C(=O)c2c3c(c4[nH]c5ccc(Cl)cc5c4c2C1=O)CCC3 [Compound 6f]
IC50 ([6]; Table 3, read-out: PARP IC50): 62 nM

O=C1NC(=O)c2c1c1c(c3[nH]c4ccc(-c5csc(CNC(=O)C6CC6)n5)cc4c23)CCC1 [Compound 3w]
IC50 ([6]; PARP IC50 (nM), Table 2): 49 nM

CC(C)(C)OC(=O)NCCCC(=O)NCc1ccc2[nH]c3c4c(c5c(c3c2c1)C(=O)NC5=O)CCC4 [Compound 2w, 3-(N-(4-(N-Boc-amino)butanoyl)aminomethyl)-5,7,8,9,10,11-hexahydrocyclopent[a]pyrrolo[3,4-c]carbazole-5(6H), 7-dione]
IC50 ([6]; Table 2, read-out: PARP IC50): 33 nM

O=C(CN1CCCCC1)c1ccc2[nH]c3c4c(c5c(c3c2c1)C(=O)NC5=O)CCC4 [Compound 2i]
IC50 ([6]; Table 2, read-out: PARP IC50): 20 nM

NC(N)=Nc1nc(-c2ccc3[nH]c4c5c(c6c(c4c3c2)C(=O)NC6=O)CCC5)cs1 [Compound 3g]
IC50 ([6]; Table 2, read-out: PARP IC50): 19 nM

Cn1c2ccccc2c2c3c(c4c(c21)CCCC4)C(=O)NC3=O [Compound 11d]
MLK3 % @ 1 μM [3]: 52% | IC50 [2]: 778 nM

O=C(NCc1ccc2[nH]c3c4c(c5c(c3c2c1)C(=O)NC5=O)CCC4)c1ccccc1 [Compound 2u, 3-(Benzoylaminomethyl)-5,7,8,9,10,11-hexahydrocyclopent[a]pyrrolo[3,4-c]carbazole-5(6H), 7-dione]
IC50 ([6]; Table 2, read-out: PARP IC50): 37 nM

O=C1NC(=O)c2c1c1c(c3[nH]c4ccc(CO)cc4c23)CCC1 [Compound 2aw]
IC50 ([6]; Table 2, read-out: PARP IC50): 22 nM

O=C(NCCCN1CCCC1=O)Oc1ccc2[nH]c3c4c(c5c(c3c2c1)C(=O)NC5=O)CCC4 [Compound 15e]
IC50 ([6]; PARP IC50 (nM), Table 8): 28 nM

COCCOc1cccc2[nH]c3c4c(c5c(c3c12)C(=O)NC5=O)CCC4 [Compound 14f]
IC50 ([6]; Table 18, read-out: PARP IC50): 25 nM

NCCCC[C@H](N)C(=O)n1c2ccccc2c2c3c(c4c(c21)CCC4)C(=O)NC3 [Compound 1v, 11-L-Lysyl-5,7,8,9,10,11-hexahydrocyclopent[a]pyrrolo[3,4-c]carbazole-7(6H)-one dihydrochloride]
IC50 ([6]; Table 1, read-out: PARP IC50): 1400 nM

COc1ccc2[nH]c3c4c(c5c(c3c2c1OC)C(=O)NC5=O)CCC4 [Compound 14l]
IC50 ([6]; Table 18, read-out: PARP IC50): 21 nM

NCC(=O)N1C(=O)c2c3c(c4[nH]c5ccccc5c4c2C1=O)CCC3 [Compound 1m]
IC50 ([6]; Table 1, read-out: PARP IC50): 38 nM

O=C1NC(=O)c2c1c1c(c3[nH]c4ccccc4c23)CCCC1 [Compound 11b, 5,7,9,10,11,12-Hexahydrocyclohexano[a]pyrrolo[3,4-c]carbazole-5(6H), 7(8H)-dione]
MLK3 % @ 1 μM [3]: 26% | IC50 [2]: 698 nM

CCCCN(CCCC)Cc1ccc2[nH]c3c4c(c5c(c3c2c1)C(=O)NC5=O)CCC4 [Compound 2bn]
IC50 ([6]; Table 2, read-out: PARP IC50): 28 nM

CC(=O)c1ccc2[nH]c3c4c(c5c(c3c2c1)C(=O)NC5=O)CCC4 [Compound 2d]
IC50 ([6]; Table 2, read-out: PARP IC50): 17 nM

O=C(NN1CCOCC1)Oc1ccc2[nH]c3c4c(c5c(c3c2c1)C(=O)NC5=O)CCC4 [Compound 15k]
IC50 ([6]; PARP IC50 (nM), Table 8): 20 nM

O=C(NCCc1ccccn1)Oc1ccc2[nH]c3c4c(c5c(c3c2c1)C(=O)NC5=O)CCC4 [Compound 15m]
IC50 ([6]; PARP IC50 (nM), Table 8): 31 nM
